In ChEMBL document CHEMBL1821577, “Discovery of GSK1997132B a novel centrally penetrant benzimidazole PPARγ partial agonist” (Bioorg Med Chem Lett, 2011):
In brackets after ≈: the same amount, converted by molar mass.

Key:
[1] = molecular target: T1, Peroxisome proliferator-activated receptor gamma (Homo sapiens, UniProt P37231); assay: Partial agonist activity at human PPARgamma by luciferase reporter gene assay; assay type: functional
T1 sequence (P37231 whole entry): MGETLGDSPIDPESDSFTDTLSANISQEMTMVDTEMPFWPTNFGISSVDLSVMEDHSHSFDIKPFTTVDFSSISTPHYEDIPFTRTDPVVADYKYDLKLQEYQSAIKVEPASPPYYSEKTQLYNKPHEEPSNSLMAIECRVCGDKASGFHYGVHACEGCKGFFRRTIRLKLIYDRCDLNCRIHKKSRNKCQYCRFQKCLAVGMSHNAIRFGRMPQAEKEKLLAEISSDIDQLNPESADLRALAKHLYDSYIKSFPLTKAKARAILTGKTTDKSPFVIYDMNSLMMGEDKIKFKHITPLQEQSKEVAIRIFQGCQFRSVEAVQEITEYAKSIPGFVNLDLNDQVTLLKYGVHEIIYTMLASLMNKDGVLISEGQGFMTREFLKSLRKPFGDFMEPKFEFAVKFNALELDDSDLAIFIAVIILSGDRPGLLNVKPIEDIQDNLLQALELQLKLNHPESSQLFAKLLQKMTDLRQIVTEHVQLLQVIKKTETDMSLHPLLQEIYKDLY

[2] = molecular target: T2, Peroxisome proliferator-activated receptor gamma (Homo sapiens) (UniProt P37231); assay: Activity at human PPARgamma by luciferase reporter gene assay; set-up: concentration or dose not given beside the values
T2 sequence (whole entry): T1 sequence (P37231 whole entry)

Liver microsomes [3] = assay: Intrinsic clearance in rat liver microsome; assay type: ADME
Liver microsomes [4] = assay: Intrinsic clearance in human liver microsome; assay type: ADME
Liver [5] = assay: Intrinsic clearance in rat liver S9 fraction; assay type: ADME, subcellular
Rattus norvegicus [6] = assay: Blood clearance at steady state in rat at 2 mg/kg/h, iv; assay type: ADME, organism-based; set-up: route intravenous; settings: in vivo
[7] = Ratio of drug uptake in brain to blood at steady state in rat at 2 mg/kg/h, iv; assay type: ADME, organism-based; set-up: route intravenous
Brain [8] = assay: Drug uptake in rat brain at steady state at 2 mg/kg/h, iv; assay type: ADME, organism-based; set-up: route intravenous; settings: in vivo, read-out: Drug uptake
[9] = Fraction unbound in rat blood; assay type: ADME, tissue-based
[10] = Fraction unbound in rat brain; assay type: ADME, tissue-based
Brain [11] = assay: Free drug level rat brain at 1 mg/kg, iv; assay type: ADME, organism-based; set-up: dose 1 mg/kg, route intravenous; settings: in vivo
Cytochrome P450 1A2 = molecular target: T3, Cytochrome P450 1A2 (Homo sapiens, UniProt P05177); assay: Inhibition of CYP1A2; assay type: ADME
T3 sequence (P05177 whole entry): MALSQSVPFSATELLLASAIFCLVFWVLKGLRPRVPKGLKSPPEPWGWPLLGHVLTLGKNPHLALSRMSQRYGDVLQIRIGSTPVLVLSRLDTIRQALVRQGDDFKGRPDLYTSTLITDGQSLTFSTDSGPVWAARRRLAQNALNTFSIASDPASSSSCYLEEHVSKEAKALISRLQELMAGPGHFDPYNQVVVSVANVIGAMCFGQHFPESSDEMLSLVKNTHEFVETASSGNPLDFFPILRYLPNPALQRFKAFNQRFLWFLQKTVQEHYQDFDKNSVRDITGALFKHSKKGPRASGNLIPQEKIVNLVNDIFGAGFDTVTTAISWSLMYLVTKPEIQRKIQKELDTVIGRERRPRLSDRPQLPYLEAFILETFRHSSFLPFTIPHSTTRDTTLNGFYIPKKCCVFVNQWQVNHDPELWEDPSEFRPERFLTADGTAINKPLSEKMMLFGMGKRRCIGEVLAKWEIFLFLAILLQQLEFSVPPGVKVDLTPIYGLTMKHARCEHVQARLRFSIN

Cytochrome P450 2C19 = Cytochrome P450 2C19 (Homo sapiens, UniProt P33261); assay: Inhibition of CYP2C19; assay type: ADME
Cytochrome P450 2C19, sequence (P33261 whole entry): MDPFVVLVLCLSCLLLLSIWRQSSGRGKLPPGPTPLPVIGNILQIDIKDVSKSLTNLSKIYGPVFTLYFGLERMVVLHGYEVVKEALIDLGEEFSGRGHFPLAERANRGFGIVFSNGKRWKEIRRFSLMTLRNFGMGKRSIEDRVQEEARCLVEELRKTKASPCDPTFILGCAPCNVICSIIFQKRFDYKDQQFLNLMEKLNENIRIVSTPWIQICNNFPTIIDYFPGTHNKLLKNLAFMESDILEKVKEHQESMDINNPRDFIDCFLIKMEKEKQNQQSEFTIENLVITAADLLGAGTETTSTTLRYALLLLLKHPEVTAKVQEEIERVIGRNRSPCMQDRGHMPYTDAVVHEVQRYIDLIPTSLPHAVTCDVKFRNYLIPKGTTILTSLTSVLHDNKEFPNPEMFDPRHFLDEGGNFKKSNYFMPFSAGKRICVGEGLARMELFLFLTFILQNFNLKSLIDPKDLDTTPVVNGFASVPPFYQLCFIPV

Cytochrome P450 2C9 = Cytochrome P450 2C9 (Homo sapiens, UniProt P11712); assay: Inhibition of CYP2C9; assay type: ADME
Cytochrome P450 2C9, sequence (P11712 whole entry): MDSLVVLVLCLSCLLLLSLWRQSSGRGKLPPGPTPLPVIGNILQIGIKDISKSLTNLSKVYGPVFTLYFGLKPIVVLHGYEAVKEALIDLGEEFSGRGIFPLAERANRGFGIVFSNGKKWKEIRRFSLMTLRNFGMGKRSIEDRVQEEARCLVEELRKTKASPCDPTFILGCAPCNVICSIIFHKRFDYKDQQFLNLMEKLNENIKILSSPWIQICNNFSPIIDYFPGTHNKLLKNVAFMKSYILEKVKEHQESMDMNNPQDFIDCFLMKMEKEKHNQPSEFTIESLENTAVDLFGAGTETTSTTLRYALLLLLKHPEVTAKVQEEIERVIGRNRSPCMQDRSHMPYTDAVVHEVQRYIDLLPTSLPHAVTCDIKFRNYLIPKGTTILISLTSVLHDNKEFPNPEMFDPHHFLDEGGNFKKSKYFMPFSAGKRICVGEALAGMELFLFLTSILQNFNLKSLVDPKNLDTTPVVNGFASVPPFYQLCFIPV

Cytochrome P450 2D6 = Cytochrome P450 2D6 (Homo sapiens, UniProt P10635); assay: Inhibition of CYP2D6; assay type: ADME
Cytochrome P450 2D6, sequence (P10635 whole entry): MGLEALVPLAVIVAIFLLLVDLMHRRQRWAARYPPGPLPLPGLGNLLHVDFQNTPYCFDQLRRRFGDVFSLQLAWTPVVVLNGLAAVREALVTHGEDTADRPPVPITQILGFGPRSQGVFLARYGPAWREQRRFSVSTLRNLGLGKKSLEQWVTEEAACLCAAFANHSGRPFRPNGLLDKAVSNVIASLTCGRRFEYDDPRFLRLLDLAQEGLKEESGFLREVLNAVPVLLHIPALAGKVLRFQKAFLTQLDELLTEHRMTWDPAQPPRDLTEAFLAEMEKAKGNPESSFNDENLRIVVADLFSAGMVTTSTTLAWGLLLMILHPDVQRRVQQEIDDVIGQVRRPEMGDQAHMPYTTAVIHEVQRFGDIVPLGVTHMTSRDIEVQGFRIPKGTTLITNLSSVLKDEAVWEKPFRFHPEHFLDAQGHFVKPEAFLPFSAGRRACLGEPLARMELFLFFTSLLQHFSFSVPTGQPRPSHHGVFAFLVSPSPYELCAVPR

Cytochrome P450 3A4 [12] = molecular target: T4, Cytochrome P450 3A4 (Homo sapiens, UniProt P08684); assay: Inhibition of CYP3A4 using DEF substrate; assay type: ADME
T4 sequence (P08684 whole entry): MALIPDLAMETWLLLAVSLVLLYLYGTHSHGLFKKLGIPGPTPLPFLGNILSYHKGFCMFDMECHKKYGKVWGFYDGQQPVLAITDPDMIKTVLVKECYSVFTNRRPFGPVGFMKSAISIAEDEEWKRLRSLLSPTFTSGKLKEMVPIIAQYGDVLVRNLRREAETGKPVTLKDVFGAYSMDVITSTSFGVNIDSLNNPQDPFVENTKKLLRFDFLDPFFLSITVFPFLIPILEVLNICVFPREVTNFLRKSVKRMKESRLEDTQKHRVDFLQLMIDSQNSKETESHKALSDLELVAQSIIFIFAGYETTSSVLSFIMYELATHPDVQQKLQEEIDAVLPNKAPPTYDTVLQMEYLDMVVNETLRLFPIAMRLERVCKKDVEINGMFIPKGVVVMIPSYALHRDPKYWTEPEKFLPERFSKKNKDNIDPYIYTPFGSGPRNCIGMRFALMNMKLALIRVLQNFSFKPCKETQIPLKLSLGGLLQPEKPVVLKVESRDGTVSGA

Cytochrome P450 3A4 [13] = molecular target: T4, Cytochrome P450 3A4; assay: Inhibition of CYP3A4 using 7-benzyloxyquinoline as substrate; assay type: ADME
[14] = Solubility of the compound in water after 0.5 hrs; assay type: physicochemical
[15] = Solubility of the compound in simulated gastric fluid after 0.5 hrs; assay type: physicochemical
[16] = Solubility of the compound in fasted state simulated intestinal fluid after 0.5 hrs; assay type: physicochemical
[17] = Solubility of the compound in fed state simulated intestinal fluid after 0.5 hrs; assay type: physicochemical
P-gp (human MDR1) [18] = assay: Permeability of the compound from apical to basolateral direction in dog MDCK2 expressing human MDR1 cells by PGP assay; assay type: ADME, cell-based, Canis lupus familiaris, MDCK-II; settings: MDCK-MDR1, read-out: permeability
P-gp (human MDR1) [19] = assay: Efflux ratio of permeability in dog MDCK2 expressing human MDR1 cells by PGP assay; assay type: ADME, cell-based, Canis lupus familiaris, MDCK-II; settings: MDCK-MDR1
[20] = molecular target: T5, Peroxisome proliferator-activated receptor alpha (Homo sapiens, UniProt Q07869); assay: Partial agonist activity at PPARalpha by luciferase reporter gene assay; assay type: functional
T5 sequence (Q07869 whole entry): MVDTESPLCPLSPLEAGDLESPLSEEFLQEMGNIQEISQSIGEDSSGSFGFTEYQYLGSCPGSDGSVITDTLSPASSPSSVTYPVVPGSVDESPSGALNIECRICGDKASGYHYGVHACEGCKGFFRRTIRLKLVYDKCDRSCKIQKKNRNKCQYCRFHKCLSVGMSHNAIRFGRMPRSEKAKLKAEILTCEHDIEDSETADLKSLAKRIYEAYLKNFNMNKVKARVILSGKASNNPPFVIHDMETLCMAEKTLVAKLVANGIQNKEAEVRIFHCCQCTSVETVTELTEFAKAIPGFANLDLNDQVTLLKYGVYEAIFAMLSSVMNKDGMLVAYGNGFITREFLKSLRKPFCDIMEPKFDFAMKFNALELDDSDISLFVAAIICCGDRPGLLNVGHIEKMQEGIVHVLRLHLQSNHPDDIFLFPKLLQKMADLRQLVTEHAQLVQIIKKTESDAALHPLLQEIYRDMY

[21] = molecular target: T6, Peroxisome proliferator-activated receptor delta (Homo sapiens, UniProt Q03181); assay: Partial agonist activity at PPARdelta by luciferase reporter gene assay; assay type: functional
T6 sequence (Q03181 whole entry): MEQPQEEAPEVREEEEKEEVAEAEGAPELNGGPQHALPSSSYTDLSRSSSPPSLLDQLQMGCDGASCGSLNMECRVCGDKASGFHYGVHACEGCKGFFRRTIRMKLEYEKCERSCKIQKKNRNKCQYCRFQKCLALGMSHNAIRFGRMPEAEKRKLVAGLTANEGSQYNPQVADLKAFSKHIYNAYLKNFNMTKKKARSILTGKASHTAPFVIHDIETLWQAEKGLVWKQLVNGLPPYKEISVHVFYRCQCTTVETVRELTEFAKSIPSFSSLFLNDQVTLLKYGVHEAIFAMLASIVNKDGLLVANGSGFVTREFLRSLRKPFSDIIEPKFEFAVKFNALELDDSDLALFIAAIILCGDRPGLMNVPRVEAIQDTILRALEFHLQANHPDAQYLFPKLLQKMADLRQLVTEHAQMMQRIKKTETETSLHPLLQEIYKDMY

Liver [22] = assay: Intrinsic clearance in mouse liver microsome; assay type: ADME; settings: microsomes
Mus musculus = assay: Blood clearance in mouse at 1 mg/kg, iv; assay type: ADME, organism-based; set-up: dose 1 mg/kg, route intravenous; settings: in vivo
Rattus norvegicus [23] = assay: Blood clearance in rat at 1 mg/kg, iv; assay type: ADME, organism-based; set-up: dose 1 mg/kg, route intravenous; settings: in vivo
[24] = Ratio of drug uptake in brain to blood in rat at 3 mg/kg, po; assay type: ADME, organism-based; set-up: dose 3 mg/kg, route oral
Brain [25] = assay: Drug uptake in rat brain at 3 mg/kg, po; assay type: ADME, organism-based; set-up: dose 3 mg/kg, route oral; settings: in vivo, read-out: Drug uptake

For `CC[C@H](NC(=O)c1ccc2c(c1)nc(C)n2Cc1ccc(Cl)c(Cl)c1)c1ccccc1`, the EC50 [1] was 251 nM and the Activity [2] was 21%.
For `Cc1nc2cc(C(=O)NCc3ccccc3)ccc2n1Cc1ccc(Cl)c(Cl)c1`, the EC50 [1] was 398 nM and the Activity [2] was 83%.
With `CC[C@@H](NC(=O)c1ccc2c(c1)ncn2Cc1ncc(F)cc1F)c1ccccc1` the EC50 [1] was 10 nM, the Activity [2] was 68% and the CL (Liver microsomes [3]) was 1.2 mL/min/g. It also gave a CL (Liver microsomes [4]) of 0.5 mL/min/g, a CL (Liver [5]) of 1.6 mL/min/g and a clearance (Rattus norvegicus [6]) of 30 mL/min/kg. It also gave a Kp [7] of 0.22, a concentration (Brain [8]) of 446 nM and a fraction unbound [9] of 0.175. For the same molecule, the fraction unbound [10] was 0.115, the Drug uptake (Brain [11]) was 51 nM and the IC50 (Cytochrome P450 1A2) was 14000 nM. The IC50 (Cytochrome P450 2C19) was 87000 nM, the IC50 (Cytochrome P450 2C9) was 42000 nM and the IC50 (Cytochrome P450 2D6) was 65000 nM. It also gave an IC50 (Cytochrome P450 3A4 [12]) of 45000 nM, an IC50 (Cytochrome P450 3A4 [13]) greater than 100000 nM and a solubility at 0.5 h [14] of 330 µg/mL (≈ 812 µM). For the same molecule, the solubility at 0.5 h [15] was greater than 1000 µg/mL, the solubility at 0.5 h [16] was 80 µg/mL (≈ 197 µM) and the solubility at 0.5 h [17] was 220 µg/mL (≈ 541 µM). The Papp A→B (P-gp (human MDR1) [18]) was 122 ×10⁻⁶ cm/s and the efflux ratio (P-gp (human MDR1) [19]) was 1.6.
`CC[C@@H](NC(=O)c1ccc2c(c1)ncn2Cc1ccccn1)c1ccccc1` gave an EC50 [1] of 126 nM, an Activity [2] of 59% and a clearance (Rattus norvegicus [6]) of 78 mL/min/kg. For the same molecule, the Kp [7] was 0.2 and the concentration (Brain [8]) was 228 nM.
Molecule `CC[C@@H](NC(=O)c1ccc2c(c1)nc(C)n2Cc1ccc(F)cc1)c1ccccc1` has an EC50 [1] of 158 nM and an Activity [2] of 74%.
`CC[C@@H](NC(=O)c1ccc2c(c1)ncn2Cc1ccc(Cl)cc1F)c1ccccc1` showed an EC50 [1] of 0.794 nM and an Activity [2] of 74%.
Molecule `CCC(=O)c1nc2cc(C(=O)N[C@H](CC)c3ccccc3)ccc2n1Cc1ccc(Cl)c(Cl)c1` has an EC50 [1] of 79.4 nM and an Activity [2] of 75%.
Molecule `CC[C@@H](NC(=O)c1ccc2c(c1)nc(C(C)C)n2Cc1ccc(Cl)c(Cl)c1)c1ccccc1` has an EC50 [1] of 398 nM and an Activity [2] of 42%.
`CC[C@@H](NC(=O)c1ccc2c(c1)ncn2Cc1ccncc1)c1ccccc1` showed an EC50 [1] of 794 nM and an Activity [2] of 63%.
Molecule `CCC(NC(=O)c1ccc2c(c1)nc(C)n2Cc1ccc(Cl)c(Cl)c1)c1ccccc1` (stereo not given) has an EC50 [1] of 50.1 nM, an Activity [2] of 64% and an EC50 [20] greater than 10000 nM. For the same molecule, the EC50 [21] was greater than 10000 nM, the CL (Liver [22]) was 1.75 mL/min/g and the CL (Liver microsomes [3]) was 2.5 mL/min/g. For the same molecule, the CL (Liver microsomes [4]) was 0.5 mL/min/g and the clearance (Mus musculus) was 736 mL/min/kg.
`CC[C@@H](NC(=O)c1ccc2c(c1)nc(C)n2Cc1ccc(Cl)c(Cl)c1)c1ccccc1` showed an EC50 [1] of 39.8 nM and an Activity [2] of 75%.
With `CC[C@@H](NC(=O)c1ccc2c(c1)nc(C)n2Cc1ccc(S(C)(=O)=O)cc1)c1ccccc1` the EC50 [1] was 5010 nM and the Activity [2] was 48%.
For `CC[C@@H](NC(=O)c1ccc2c(c1)ncn2Cc1cccnc1)c1ccccc1`, the EC50 [1] was 501 nM and the Activity [2] was 74%.
For `CC[C@@H](NC(=O)c1ccc2c(c1)ncn2Cc1ncc(Cl)cc1Cl)c1ccccc1`, the EC50 [1] was 0.501 nM and the Activity [2] was 76%.
Molecule `Cc1nc2cc(C(=O)N[C@H](C)c3ccccc3)ccc2n1Cc1ccc(Cl)c(Cl)c1` has an EC50 [1] of 50.1 nM, an Activity [2] of 77% and a CL (Liver microsomes [3]) of 1.4 mL/min/g. For the same molecule, the CL (Liver microsomes [4]) was 0.5 mL/min/g, the CL (Liver [5]) was 8.3 mL/min/g and the clearance (Rattus norvegicus [23]) was 75 mL/min/kg. For the same molecule, the Kp [24] was 0.29 and the concentration (Brain [25]) was 12 nM.
With `CC[C@@H](NC(=O)c1ccc2c(c1)ncn2Cc1ccc(Cl)cc1)c1ccccc1` the EC50 [1] was 3.16 nM and the Activity [2] was 74%.
`CC[C@@H](NC(=O)c1ccc2c(c1)ncn2Cc1ccccc1OC)c1ccccc1` showed an EC50 [1] of 5.01 nM and an Activity [2] of 75%.
